The values below come from patent US7265152B2 (ViroPharma Incorporated, priority 2002, dated 2007).

The test system of experiment [1] is HCV replicon (BB7 sequence) in Huh-7-Clone A cells. Kind of experiment: HCV replicon assay: ELISA of NS5A protein in replicon-containing cells (Inhibition of Viral RNA Replication). Format: cell-based. The following applies: Hepatitis C virus, read-out: Replicon. The method, boiled down: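 Huh-7-Clone A cells carrying subgenomic BB7 HCV replicon (G418-selectable) incubated 72 h with compound. NS5A protein quantified by cell ELISA: glutaraldehyde fixation, anti-NS5A monoclonal plus HRP secondary, TMB read at OD 650 nm. EC50 derived from 8-point serial dilution dose curve.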

Another experiment addresses T1, HCV NS5B (Hepatitis C virus genotype 1b, UniProt Q9WMX2).
T1 construct: fusion protein, of which the carboxyl terminal 21 amino acids were removed to enhance its solubility; His tag (GSHHHHHH); made in house; host or cells: E. coli
Briefly: Inhibition of viral RNA-dependent RNA polymerase (RdRp), in vitro biochemical assay. Further details: species or system HCV genotype 1b virus (BB7). The following applies: read-out: HCV pol-BB7 IC50. The method, boiled down:
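Purified recombinant NS5B from a genotype 1b consensus (BB7), His-tagged, E. coli-expressed, with the C-terminal 21 residues deleted. Inhibition of RdRp activity in vitro was measured, and IC50 is the concentration giving 50% inhibition.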

Where [2] appears, read: Huh-7-Clone A, NS5A ELISA, 72-hour incubation, ranges of EC50.
Setting [3] is: purified His-tagged NS5B (BB7), carboxyl terminal 21 amino acids removed.
The mark [4] stands for this setting: HCV replicon assay, ranges of 50% effective concentration (EC50).
Setting [5] is: HCV NS5B polymerase, BB7 (genotype 1b), values given as range classes A-D.
[6] abbreviates: HCV replicon assay, ranges of EC50.
[7] abbreviates: HCV NS5B RdRp, BB7, activity class.
Setting [8] is: HCV NS5B RdRp, BB7, class symbols A-D.
[9] abbreviates: ranges of EC50 in HCV replicon assay.
Setting [10] is: HCV NS5B RdRp, BB7, reported as range class.

Where two headings read alike, the source gives them in different places.

Regarding `CNC(=O)c1c(-c2cccc(C(F)(F)F)c2)oc2ccc(OC)cc12` [Example 55, 5-Methoxy-2-(3-trifluoromethyl-phenyl)-benzofuran-3-carboxylic acid methylamide], the EC50 in experiment [1] (setting [2]) was below 30 µM. On HCV NS5B (setting [3]), the IC50 was 500 to 5000 nM.

With `CNC(=O)c1c(-c2ccc(OC)cc2)oc2ccc(OC)cc12` [Example 54, 5-Methoxy-2-(4-methoxy-phenyl)-benzofuran-3-carboxylic acid methylamide], the EC50 in experiment [1] (setting [2]) was below 10 µM. In addition, the half-maximal inhibitory concentration (IC50) at HCV NS5B (setting [3]) lay in the range of 500 to 5000 nM.

In the case of `CNC(=O)c1c(-c2ccc(F)cc2)oc2cc(C(=O)CO)c(OC)cc12` [Example 436, 2-(4-Fluoro-phenyl)-6-(2-hydroxy-acetyl)-5-methoxy-benzofuran-3-carboxylic acid methylamide], the EC50 in experiment [1] (setting [4]) was below 10 µM. Moreover, the IC50 at HCV NS5B (setting [5]) is at most 500 nM.

As to `CCc1cc2c(C(=O)NC)c(-c3ccc(F)cc3)oc2cc1C(C)(C)O` [Example 339, 5-Ethyl-2-(4-fluoro-phenyl)-6-(1-hydroxy-1-methyl-ethyl)-benzofuran-3-carboxylic acid methylamide], the EC50 in experiment [1] (setting [6]) was below 1 µM. Besides, at HCV NS5B (setting [7]), the IC50 is at most 500 nM.

For the molecule `CNC(=O)c1c(-c2ccc(F)cc2)oc2cc(-c3noc(C)n3)c(OC)cc12` [Example 50, 2-(4-Fluoro-phenyl)-5-methoxy-6-(5-methyl-[1,2,4]oxadiazol-3-yl)-benzofuran-3-carboxylic acid methylamide], in experiment [1] (setting [2]), the EC50 was below 1 µM. Further, at HCV NS5B (setting [3]), the half-inhibitory concentration (IC50) is at most 500 nM.

For the molecule `CNC(=O)c1c(-c2ccc(F)cc2)oc2cc(N(C)S(C)(=O)=O)c(OCc3nnc(N)[nH]3)cc12` [Example 402, 5-(5-Amino-4H-[1,2,4]triazol-3-ylmethoxy)-2-(4-fluoro-phenyl)-6-(methanesulfonyl-methyl-amino)-benzofuran-3-carboxylic acid methylamide], the EC50 in experiment [1] (setting [4]) is below 1 µM. For the same molecule, the half-maximal inhibitory concentration (IC50) at HCV NS5B (setting [5]) is at most 500 nM.

Take `CNC(=O)c1c(-c2ccc(F)cc2)oc2cc(N(CC3(CO)CC3)S(C)(=O)=O)c(OCC3(CO)CC3)cc12` [Example 422, 2-(4-Fluoro-phenyl)-5-(1-hydroxymethyl-cyclopropylmethoxy)-6-[(1-hydroxymethyl-cyclopropylmethyl)-methanesulfonyl-amino]-benzofuran-3-carboxylic acid methylamide]: the EC50 in experiment [1] (setting [4]) is below 10 µM. The IC50 at HCV NS5B (setting [5]) fell in the range of 500 to 5000 nM.

Regarding `CNC(=O)c1c(-c2ccc(F)cc2)oc2cc(-c3c(C)noc3C)c(O)cc12` [Example 314, 6-(3,5-Dimethyl-isoxazol-4-yl)-2-(4-fluoro-phenyl)-5-hydroxy-benzofuran-3-carboxylic acid methylamide], the EC50 in experiment [1] (setting [6]) is below 1 µM. In addition, the concentration for half-maximal inhibition (IC50) on HCV NS5B (setting [8]) is at most 500 nM.

`CNC(=O)c1c(-c2ccc(F)cc2)oc2cc(C3CNC(=O)C3C(=O)NC)c(OC)cc12` (stereo not drawn) [Example 278, 4-[2-(4-Fluoro-phenyl)-5-methoxy-3-methylcarbamoyl-benzofuran-6-yl]-2-oxo-pyrrolidine-3-carboxylic acid methylamide]: the EC50 in experiment [1] (setting [6]) was below 10 µM. Also, the half-maximal inhibitory concentration (IC50) at HCV NS5B (setting [8]) was at most 500 nM.

In the case of `CNC(=O)c1c(-c2ccc(F)c(Cl)c2)oc2ccc(OC)cc12` [Example 76, 2-(3-Chloro-4-fluoro-phenyl)-5-methoxy-benzofuran-3-carboxylic acid methylamide], in experiment [1] (setting [2]), the EC50 is below 10 µM. The IC50 at HCV NS5B (setting [3]) lay within 500 to 5000 nM.

For `CNC(=O)c1c(-c2ccc(F)cc2)oc2cc(NS(=O)(=O)C(C)C)c(OC(C)C)cc12` [Example 145, 2-(4-Fluoro-phenyl)-5-isopropoxy-6-(propane-2-sulfonylamino)-benzofuran-3-carboxylic acid methylamide], in experiment [1] (setting [9]), the EC50 is below 10 µM. Further, the IC50 on HCV NS5B (HCV NS5B RdRp, BB7 genotype 1b) fell in the range of 500 to 5000 nM.

For `CNC(=O)c1c(-c2ccc(F)cc2)oc2cc(N(C)S(C)(=O)=O)c(OCC3CC3)cc12` [Example 351, 5-Cyclopropylmethoxy-2-(4-fluoro-phenyl)-6-(methanesulfonyl-methyl-amino)-benzofuran-3-carboxylic acid methylamide], the EC50 in experiment [1] (setting [6]) is below 1 µM. Further, the IC50 at HCV NS5B (setting [7]) is at most 500 nM.

For the molecule `CNC(=O)c1c(-c2ccc(F)cc2)oc2cc(N3CCOCC3)c(OC)cc12` [Example 103, 2-(4-Fluoro-phenyl)-5-methoxy-6-morpholin-4-yl-benzofuran-3-carboxylic acid methylamide], in experiment [1] (setting [9]), the EC50 was below 1 µM. The half-maximal inhibitory concentration (IC50) on HCV NS5B (HCV NS5B RdRp, BB7 genotype 1b) was at most 500 nM.

For `CNC(=O)c1c(-c2ccc(F)cc2)oc2cc(N(C)S(C)(=O)=O)c(OCC(N)=O)cc12` [Example 424, 5-Carbamoylmethoxy-2-(4-fluoro-phenyl)-6-(methanesulfonyl-methyl-amino)-benzofuran-3-carboxylic acid methylamide], in experiment [1] (setting [4]), the EC50 was below 1 µM. In addition, the IC50 on HCV NS5B (setting [5]) was at most 500 nM.

For the molecule `CCN(C)c1cc2oc(-c3ccc(F)cc3)c(C(=O)NC)c2c(Cl)c1OC` [Example 362, 4-Chloro-6-(ethyl-methyl-amino)-2-(4-fluoro-phenyl)-5-methoxy-benzofuran-3-carboxylic acid methylamide], the EC50 in experiment [1] (setting [6]) is below 10 µM. The IC50 at HCV NS5B (setting [7]) is at most 500 nM.

For `CNC(=O)c1c(-c2ccc(F)cc2)oc2cc(C=O)c(OC(C)C)cc12` [Example 160, 2-(4-Fluoro-phenyl)-6-formyl-5-isopropoxy-benzofuran-3-carboxylic acid methylamide], the EC50 in experiment [1] (setting [9]) is below 30 µM. Besides, on HCV NS5B (HCV NS5B RdRp, BB7 genotype 1b), the IC50 is at most 500 nM.

Take `CNC(=O)c1c(-c2ccc(F)cc2)oc2cc(N(C)S(C)(=O)=O)c(OCc3ccc(C(=O)O)cc3)cc12` [Example 311, 4-[2-(4-Fluoro-phenyl)-6-(methanesulfonyl-methyl-amino)-3-methylcarbamoyl-benzofuran-5-yloxymethyl]-benzoic acid]: the EC50 in experiment [1] (setting [6]) was below 10 µM. Moreover, on HCV NS5B (setting [8]), the IC50 was at most 500 nM.

In the case of `CNC(=O)c1c(-c2ccc(F)cc2)oc2cc(OCc3ccccc3)c(OCc3ccccc3)cc12` [Example 183, 5,6-Bis-benzyloxy-2-(4-fluoro-phenyl)-benzofuran-3-carboxylic acid methylamide], the EC50 in experiment [1] (HCV replicon, range of EC50) was below 10 µM. Besides, on HCV NS5B (setting [10]), the half-inhibitory concentration (IC50) was above 30000 nM.

Take `CNC(=O)c1c(-c2ccc(F)cc2)oc2cc(-c3cncs3)c(OC(C)C)cc12` [Example 227, 2-(4-Fluoro-phenyl)-5-isopropoxy-6-thiazol-5-yl-benzofuran-3-carboxylic acid methylamide]: in experiment [1] (HCV replicon, range of EC50), the EC50 was below 1 µM. Moreover, the IC50 at HCV NS5B (setting [10]) was at most 500 nM.

With `CNC(=O)c1c(-c2ccc(F)cc2)oc2cc(N(C)S(C)(=O)=O)c(OCc3ccccc3OC(F)F)cc12` [Example 347, 5-(2-Difluoromethoxy-benzyloxy)-2-(4-fluoro-phenyl)-6-(methanesulfonyl-methyl-amino)-benzofuran-3-carboxylic acid methylamide], in experiment [1] (setting [6]), the EC50 is below 1 µM. Moreover, on HCV NS5B (setting [7]), the IC50 is at most 500 nM.

`CNC(=O)c1c(-c2ccc(F)cc2)oc2cc(N(C)S(C)(=O)=O)c(OCc3ccc(OC)cc3)cc12` [Example 327, 2-(4-Fluoro-phenyl)-6-(methanesulfonyl-methyl-amino)-5-(4-methoxy-benzyloxy)-benzofuran-3-carboxylic acid methylamide]: the EC50 in experiment [1] (setting [6]) was below 1 µM. Moreover, on HCV NS5B (setting [8]), the IC50 was at most 500 nM.

Regarding `CNC(=O)c1c(-c2ccc(F)cc2)oc2cc(O)c(OC)cc12` [Example 208, 2-(4-Fluoro-phenyl)-6-hydroxy-5-methoxy-benzofuran-3-carboxylic acid methylamide], in experiment [1] (HCV replicon, range of EC50), the EC50 was below 30 µM. Besides, at HCV NS5B (setting [10]), the IC50 is 500 to 5000 nM.

In the case of `CNC(=O)c1c(-c2ccc(F)cc2)oc2cc(N3CCOCC3)c(OCc3ccccc3)cc12` [Example 117, 5-Benzyloxy-2-(4-fluoro-phenyl)-6-morpholin-4-yl-benzofuran-3-carboxylic acid methylamide], in experiment [1] (setting [9]), the EC50 was below 1 µM. Further, the IC50 at HCV NS5B (HCV NS5B RdRp, BB7 genotype 1b) is at most 500 nM.

`CNC(=O)c1c(-c2ccc(F)cc2)oc2cc(N)c(OC(C)C)cc12` [Example 16, 6-Amino-2-(4-fluoro-phenyl)-5-isopropoxy-benzofuran-3-carboxylic acid methylamide]: the EC50 in experiment [1] (setting [2]) was below 10 µM. Further, the IC50 on HCV NS5B (setting [3]) is at most 500 nM.

In the case of `CNC(=O)c1c(-c2ccc(F)cc2)oc2cc(NCC(O)CO)c(OC(C)C)cc12` (stereo not drawn) [Example 113, 6-(2,3-Dihydroxy-propylamino)-2-(4-fluoro-phenyl)-5-isopropoxy-benzofuran-3-carboxylic acid methylamide], in experiment [1] (setting [9]), the EC50 was below 10 µM. Moreover, the IC50 at HCV NS5B (HCV NS5B RdRp, BB7 genotype 1b) was in the range of 500 to 5000 nM.

Take `CCc1cc2c(C(=O)NC)c(-c3ccc(F)cc3)oc2cc1N(CCO)S(C)(=O)=O` [Example 46, 5-Ethyl-2-(4-fluoro-phenyl)-6-[(2-hydroxy-ethyl)-methanesulfonyl-amino]-benzofuran-3-carboxylic acid methylamide]: the EC50 in experiment [1] (setting [2]) is below 1 µM. The IC50 at HCV NS5B (setting [3]) was at most 500 nM.

With `CCCOc1ccc2oc(-c3ccccc3)c(C(=O)NC)c2c1` [Example 61, 2-Phenyl-5-propoxy-benzofuran-3-carboxylic acid methylamide], in experiment [1] (setting [2]), the EC50 is below 30 µM. Also, the IC50 at HCV NS5B (setting [3]) lay in the range of 500 to 5000 nM.
